Experimental data taken from article PMC9145754, “Novel Soloxolone Amides as Potent Anti-Glioblastoma Candidates: Design, Synthesis, In Silico Analysis and Biological Activities In Vitro and In Vivo” (Pharmaceuticals, 2022).

Columns and labels:
[1] = system: HeLa cells; assay: MTT cytotoxicity assay, HeLa; format: cell-based; conditions: Homo sapiens, 24 h, read-out: IC50, Cervix, HeLa
Protocol: In the first step of the study, we analyzed the cytotoxicity of novel soloxolone derivatives 1–12 in a panel of tumor cells, including human cervical carcinoma HeLa, human duodenal carcinoma HuTu-80 and murine melanoma B16 cells, as well as human non-transformed hFF3 foreskin fibroblasts. The cells were treated with derivatives for 24 h and cell viability was evaluated by 3-(4,5-dimethylthiazol-2-yl)-2,5-diphenyltetrazolium bromide (MTT) assay. SM was used as the reference compound.
(§1) The cells in the exponential growth phase were seeded in quadruplicate in 96-well plates at a density of 1 × 10^4 cells/well for HeLa, U87, U118, KELLY and Neuro2a cells; 1.5 × 10^4 cells/well for HuTu-80 cells; 2 × 10^4 cells/well for B16 cells; and 7 × 10^3 cells/well for hFF3 fibroblasts. Cells were incubated under standard conditions overnight followed by their treatment with the investigated compounds (1–20 µM) for 24 h. Then, 10 µL of MTT solution was added to the cells to a final concentration of 0.5 mg/mL and plates were placed under standard conditions for 3 h followed by an aspiration of MTT-containing medium and a dissolution of formazan crystals with 100 µL of DMSO. The absorbance of each well was read at test and reference wavelengths of 570 and 620 nm, respectively, on a Multiscan RC plate reader (Thermo LabSystems, Helsinki, Finland).

[2] = system: U87 cells; assay: ROS production, DCFDA; format: cell-based, human; conditions: U87, 12 at 4 µM, 24 h
Protocol: To check the ability of 12 to influence ROS production, U87 cells treated with 12 (4 µM) for 24 h were stained with dichlorodihydrofluorescein diacetate (DCFDA) and analyzed by flow cytometry. […] Since ROS play an important role in the regulation of cell death, we further examined whether ROS production mediated the cytotoxicity of 12 with respect to glioblastoma cells.
Intracellular ROS levels in glioblastoma cells were measured using a DCFDA/H2DCFDA-Cellular ROS Assay Kit (Abcam, Cambridge, UK) according to the manufacturer’s instructions. Briefly, U87 cells were collected by trypsinization and stained with DCFDA at 20 μM for 30 min under standard conditions and seeded in 6-well plates at 2.8 × 10^5 cells/well. Next, the cells were treated with 12 at 4 µM for 24 h, followed by their harvesting and flow cytometry analysis. In total, 10,000 events were recorded for each sample.

[3] = system: U87 cells; assay: Colony formation assay, U87; format: cell-based, human; conditions: for decrease of surface area covered by cell colonies compared to the control: 14 days
[4] = system: Neuro2a cells; assay: MTT cytotoxicity assay, Neuro2a; format: cell-based, murine; conditions: Mus musculus, N2a, 24 h, read-out: IC50, Neuroblastoma, Neuro2a
Protocol: (§2) To evaluate the antitumor activity of the synthesized soloxolone amides in brain tumor cells, the cytotoxicity of compounds 4–12, predicted as BBB-permeable (Figure 3), was further analyzed in human glioblastoma U87 and U118 cells, as well as human neuroblastoma KELLY and murine neuroblastoma Neuro2a cells.
as §1

[5] = system: U87 cells; assay: Cytotoxicity of 12 with chloroquine (MTT); format: cell-based; conditions: U87, 12 with chloroquine 50 µM, 24 h
Protocol: Given that pentacyclic triterpenoids can induce tumor cell death not only by the apoptotic pathway but also by triggering autophagy, we next studied whether 12 stimulated autophagy in glioblastoma cells. For this, U87 and U118 cells were incubated with tryptamide 12 at toxic concentrations (2 or 4 µM) for 24 h followed by cell staining with monodansylcadaverine (MDC), a fluorescent dye specifically labeling autophagosomes. […] Considering that autophagy can be associated not only with cell death but also with cytoprotection, its role in the cytotoxicity of 12 in glioblastoma cells was further studied.
In order to evaluate whether autophagy plays an important role in compound 12-induced glioblastoma cell death, U87 cells were seeded in quadruplicate at a density of 1 × 10^4 cells/well in 96-well plates, incubated overnight under standard conditions and co-treated with 12 at 1–5 μM and chloroquine (CQ) at 50 μM for 24 h. Then, cell viability was measured using an MTT test and the curves of cytotoxicity of 12 in the presence or absence of CQ were compared.

[6] = system: U118 cells; assay: Mitochondrial membrane potential, JC-1; format: cell-based, human; conditions: for percentage of U118 cells with collapsed ΔψM: 12 at 4 µM, JC-1, control 4.7%
Protocol: It is known that structural analogs of compound 12, such as SM, bardoxolone methyl and CDDO-Im, trigger the mitochondrial pathway of apoptosis in tumor cells, leading to significant dissipation of mitochondrial membrane potential (ΔψM). To evaluate the ability of 12 to affect ΔψM in glioblastoma cells, U118 cells were incubated with 12 (4 µM) for 6 and 24 h and stained with JC-1, a fluorescent probe accumulated either within highly polarized mitochondria emitting red fluorescence (JC-1 aggregates) or in cytoplasm, in the case of low ΔψM (JC-1 monomers, green fluorescence).
[…] were cultured in 6-well plates for 24 h, incubated overnight under standard conditions and treated with 12 at 4 μM for 6 and 24 h. Thereafter, the cells were harvested, resuspended at 10^6 cell/mL in JC-1-containing PBS (5 µg/mL) and incubated under standard conditions for 30 min followed by the washing of the cells with PBS and flow cytometry analysis. In total, 10,000 events were acquired for each sample.

[7] = system: KELLY cells; assay: MTT cytotoxicity assay, KELLY; format: cell-based; conditions: Homo sapiens, 24 h, read-out: IC50, Neuroblastoma, KELLY
Protocol: as §2, §1

[8] = system: caspase-3 and -7; assay: Caspase-3/-7 activation (CellEvent reagent, flow cytometry); format: cell-based, human; conditions: U87 cells
Protocol: To double check the pro-apoptotic activity of 12, its effect on the activation of executioner caspase-3 and -7, key markers of apoptosis, was evaluated in glioblastoma U87 cells.
U87 cells were plated at a density of 2.8 × 10^5 cells/well in 6-well plates and treated with 12 at 2 and 4 μM for 6 and 24 h. Then, the cells were collected by trypsinization and centrifugation, washed with PBS and stained with CellEvent™ Caspase-3/7 Green ReadyProbes™ Reagent (Molecular Probes, Eugene, OR, USA) according to the manufacturer’s manual. Briefly, harvested cells were resuspended in 200 μL of PBS containing the reagent (1 drop/mL) and incubated for 30 min at room temperature. After that, flow cytometry analysis of the cells was performed using the NovoCyte Flow Cytometer. In total, 10,000 events were acquired for each sample.

## CC1(C)C(=O)C(C#N)=C[C@]2(C)C3=CC(=O)[C@@H]4[C@@H]5C[C@@](C)(C(=O)NCCc6c[nH]c7ccccc67)CC[C@]5(C)CC[C@@]4(C)[C@]3(C)CC[C@@H]12 [compound 12]
[1]
  IC50: 1.5 ± 0.1 µM
[2]
  increase of ROS generation compared to the control: 1.9 fold
[3]; U87, 12 at 200 nM
  decrease of surface area covered by cell colonies compared to the control: 2.1 fold
[3]; U87, 12 at 500 nM
  decrease of surface area covered by cell colonies compared to the control: 2.4 fold
[3]; U87, 12 at 50 and 100 nM
  inhibitory effect on clonogenic growth: statistically insignificant
[4]
  IC50: 1.6 ± 0.1 µM
[5]
  effect of chloroquine on cytotoxic activity of 12: did not affect the cytotoxic activity
[6]; 6 h
  percentage of U118 cells with collapsed ΔψM: 7.5%
[6]; 24 h
  percentage of U118 cells with collapsed ΔψM: 20.4%
[6]; U118, 12 at 4 µM
  JC-1 aggregate/monomer ratios: significantly reduced
[7]
  IC50: 1.8 ± 0.1 µM
[8]
  activation of caspase-3 and -7: effectively activated caspase-3 and -7 in a time-dependent manner
